# Values joined by “and” are separate entries in the source; they are usually repeats but may differ in a detail not shown here. Equal entries are not always repeated. Where two headings read alike, the source gives them in different places.
# Assay: Rat PK study #2 (Compound A PO 5 mg/kg, DMSO/PEG-400/water)
# Type: in vivo, SD rats
# Description: For the second rat pharmacokinetic study, the pharmacokinetics of Compound A were assessed in male SD rats. Compound A was prepared in a formulation of 5% DMSO, 40% PEG-400, and 55% Milli-Q water (see formulation in Table 2D) and delivered to animals orally (PO) at a dose of 5 mg/kg. Animals (n=3) were then monitored over a 24-hour period.
# Blood samples (~0.2 mL) were collected according to a schedule (0.083, 0.25, 0.5, 1, 2, 4, 8, and 24 h following the initial dosing) by jugular vein by cannulation and EDTA-K2 was used as anticoagulant. Within 30 minutes of collection, the samples were centrifuged at approximately 4000 times g-force for 5 minutes at 4° C. to obtain blood plasma. The plasma samples were immediately divided into two aliquots (~75 μL each), transferred to a cryogenic vial, and stored in a freezer at −75±15° C. prior to analysis.
# The concentration of Compound A in plasma samples was determined by liquid chromatography-mass spectrometry (LC-MS/MS) using a Shimadzu HPLC (DGU-405; LC-30AD XS CN; SIL-40AC XSCN; Plate Changer CN; CTO-40C CN; and CBM-40 CN) and an AB API 7500+LC/MS/MS instrument. Samples were analyzed on a Raptor Biphenyl 2.7 μm (50×2.1 mm) column. Solution A in the mobile phase was 95% water (0.1% formic acid) and solution B was 95% acetonitrile in water (0.1% formic acid), injection volume was 15 μL, and flow rate was 0.6 mL/min.
# To prepare samples for analysis, serial concentrations were prepared by diluting the stock solution of analyte with a 50% acetonitrile in water solution. 5 μL working solutions (5, 10, 20, 50, 100, 500, 1000, 5000, and 10000 ng/ml) were added to 50 μL of the blank SD rat plasma to achieve calibration standards of ~0.5 to 1000 ng/ml (0.5, 1, 2, 5, 10, 50, 100, 500, and 1000 ng/ml) in a total volume of 55 μL. Five quality control samples at 1 ng/ml, 2 ng/ml, 5 ng/ml 50 ng/ml, and 800 ng/ml for plasma were prepared independently of those used for the calibration curves. These QC samples were prepared on the day of analysis in the same way as calibration standards.
# 55 μL of standards, 55 μL of QC samples and 55 μL of unknown samples (50 μL of unknown rat plasma with 5 μL of blank solution) were added to 200 μL of acetonitrile containing IS mixture (verapamil) for precipitating protein respectively. The samples were then vortexed for 30 s. After centrifugation at 4° C., 3900 rpm for 15 min, the supernatant was diluted 3 times with water. […] of diluted supernatant was injected into the LC/MS/MS system for quantitative analysis.
# [1] = SD rats, PO 5 mg/kg, DMSO/PEG-400/Milli-Q water formulation, individual animals, 5 mg/kg
# [2] = SD rats, PO 5 mg/kg, DMSO/PEG-400/Milli-Q water formulation, mean of 3 animals
# [3] = male, Sprague-Dawley, rat, plasma, po, 5 mg/kg, SD rats, PO 5 mg/kg, DMSO/PEG-400/Milli-Q water formulation, mean of 3 animals
smiles,measurement,setting,value
"Cn1cc(-c2ccccc2)c(-c2cn(C)c(=O)c3[nH]c(-c4cnn(C(F)(F)F)c4)cc23)cc1=O [Compound A, 6-methyl-4-(1-methyl-2-oxo-5-phenyl-1,2-dihydropyridin-4-yl)-2-(1-(trifluoromethyl)-1H-pyrazol-4-yl)-1,6-dihydro-7H-pyrrolo[2,3-c]pyridin-7-one]",Clinical observations,"5 mg/kg PO, 24 h, one animal soft feces at 8 h",no abnormalities recorded
same,Plasma Concentration,"SD rats, PO 5 mg/kg, DMSO/PEG-400/Milli-Q water formulation, 0.083 h, individual animals, 5 mg/kg",9.76 ng/mL and 0.719 ng/mL and 2.15 ng/mL
same,Plasma Concentration,"SD rats, PO 5 mg/kg, DMSO/PEG-400/Milli-Q water formulation, 0.25 h, individual animals, 5 mg/kg",7.42 ng/mL and 5.44 ng/mL and 12.5 ng/mL
same,Plasma Concentration,"SD rats, PO 5 mg/kg, DMSO/PEG-400/Milli-Q water formulation, 0.5 h, individual animals, 5 mg/kg",31.9 ng/mL and 15.4 ng/mL and 32.7 ng/mL
same,Plasma Concentration,"SD rats, PO 5 mg/kg, DMSO/PEG-400/Milli-Q water formulation, 1 h, individual animals, 5 mg/kg",62.6 ng/mL and 38.4 ng/mL and 101 ng/mL
same,Plasma Concentration,"SD rats, PO 5 mg/kg, DMSO/PEG-400/Milli-Q water formulation, 2 h, individual animals, 5 mg/kg",170 ng/mL and 64.8 ng/mL and 272 ng/mL
same,Plasma Concentration,"SD rats, PO 5 mg/kg, DMSO/PEG-400/Milli-Q water formulation, 4 h, individual animals, 5 mg/kg",472 ng/mL and 218 ng/mL and 496 ng/mL
same,Plasma Concentration,"SD rats, PO 5 mg/kg, DMSO/PEG-400/Milli-Q water formulation, 8 h, individual animals, 5 mg/kg",532 ng/mL and 181 ng/mL and 302 ng/mL
same,Plasma Concentration,"SD rats, PO 5 mg/kg, DMSO/PEG-400/Milli-Q water formulation, 24 h, individual animals, 5 mg/kg",2.11 ng/mL and 5.81 ng/mL and 6.35 ng/mL
same,AUClast,[1],7070 ng·h/mL and 2643 ng·h/mL and 5058 ng·h/mL
same,AUClast/D,[1],1414 mg·h/mL and 529 mg·h/mL and 1012 mg·h/mL
same,Cmax,[1],532 ng/mL and 218 ng/mL and 496 ng/mL
same,F,[1],81.5% and 30.5% and 58.3%
same,AUClast/D,[2],985 mg·h/mL
same,F,[2],56.8%
same,concentration at 1 h,"male, SD, rat, plasma, po, 5 mg/kg, SD rats, PO 5 mg/kg, DMSO/PEG-400/Milli-Q water formulation, 1 h, mean of 3 animals",67 ng/mL
same,concentration at 2 h,"male, SD, rat, plasma, po, 5 mg/kg, SD rats, PO 5 mg/kg, DMSO/PEG-400/Milli-Q water formulation, 2 h, mean of 3 animals",169 ng/mL
same,concentration at 4 h,"male, SD, rat, plasma, po, 5 mg/kg, SD rats, PO 5 mg/kg, DMSO/PEG-400/Milli-Q water formulation, 4 h, mean of 3 animals",395 ng/mL
same,concentration at 8 h,"male, SD, rat, plasma, po, 5 mg/kg, SD rats, PO 5 mg/kg, DMSO/PEG-400/Milli-Q water formulation, 8 h, mean of 3 animals",338 ng/mL
same,concentration at 0.083 h,"male, Sprague-Dawley, rat, plasma, po, 5 mg/kg, SD rats, PO 5 mg/kg, DMSO/PEG-400/Milli-Q water formulation, 0.083 h, mean of 3 animals",4.21 ng/mL
same,concentration at 0.25 h,"male, Sprague-Dawley, rat, plasma, po, 5 mg/kg, SD rats, PO 5 mg/kg, DMSO/PEG-400/Milli-Q water formulation, 0.25 h, mean of 3 animals",8.5 ng/mL
same,concentration at 0.5 h,"male, Sprague-Dawley, rat, plasma, po, 5 mg/kg, SD rats, PO 5 mg/kg, DMSO/PEG-400/Milli-Q water formulation, 0.5 h, mean of 3 animals",26.7 ng/mL
same,concentration at 24 h,"male, Sprague-Dawley, rat, plasma, po, 5 mg/kg, SD rats, PO 5 mg/kg, DMSO/PEG-400/Milli-Q water formulation, 24 h, mean of 3 animals",4.75 ng/mL
same,Tmax,"male, Sprague-Dawley, rat, plasma, po, 5 mg/kg, SD rats, PO 5 mg/kg, DMSO/PEG-400/Milli-Q water formulation, individual animals",8 h
same,AUC(0-t),[3],4920 ng·h/mL
same,Tmax,[3],5.33 h
same,Cmax,"male, Sprague-Dawley, rat, plasma, po, 5 mg/kg, SD rats, PO 5 mg/kg, DMSO/PEG-400/Milli-Q water formulation, mean of 3 animals, read-out: Cmax",415 ng/mL
